Patent publication US20260103468A1, “FUSED RING COMPOUND, PHARMACEUTICAL COMPOSITION, AND USE THEREOF” (Hainan Simcere Zaiming Pharmaceutical Co., Ltd., priority 2022, published 2026)

Tests used:
[1] = target: T1, GSPT1 protein (Homo sapiens, UniProt P15170+Q96SW2); assay: Degradation activity experiment on intracellular GSPT1 protein in CAL51 cells; type: cell-based; conditions: anti-GSPT1/anti-α-Tubulin antibody staining in 384-well plate; for DC50: 6 hours; for Dmax: CAL-51, 6 hours, read-out: Maximum degradation rate (%) (GSPT1 protein degradation activity)
T1 construct: endogenous in cells; host or cells: CAL51
Protocol: The medium of CAL51 (CBP60360, Kebai) was removed, and PBS was added for rinsing once, and then digested with trypsin (Trypsin-EDTA (0.25%)) for 5 minutes. After digestion, 10 mL of complete medium (DMEM containing 10% FBS[…]) was added to neutralize trypsin, and the cells were then pipetted, collected, centrifuged at 300 g for 5 min. The cell density was adjusted to 266,667 cells/mL. 30 μL of the cell suspension was added to a 384 well plate. The plate was centrifuged at 300 g for 1 min and then incubated in a cell incubator overnight.
Compounds of the present disclosure were dissolved in DMSO, with a mother liquor storage concentration of 10 mM. The gradient dilution of compound mother liquor was carried out through the dose-response program of the compound dilution and loading instrument. The total experimental volume of the dilution program was 30 μL, with the initial concentration of 100 μM for the tested compound. A4-fold dilution was performed, resulting in 10 concentration points. The positive control compound was CC-885 in Test Example 2, the negative control was DMSO, and the DMSO content of all wells was 0.3%. After the procedure, then the plate was centrifuged and incubated in a carbon dioxide incubator for 6 hours.
After 6 hours of administration, the supernatant was discarded, the cells were washed with 50 μL of cold PBS, and then the cells were fixed with 50 μL/well of 4% paraformaldehyde/universal tissue fixation solution, and incubated at room temperature for 1 hour. The paraformaldehyde was discarded and 50 μL/well PBS-0.1% Triton X-100 was added to permeate cells for 30 minutes. PBS-Triton was discarded, 50 μL/well of blocking buffer (927-70001, Li-COR) was added, and incubated at room temperature for 1 hour. The blocking buffer was removed, and 30 μL/well of rabbit anti-GSPT1 (1: 300) (HPA052488, Sigma), mouse anti-α-Tubulin (1: 2000) (T6074, Sigma) primary antibody mixed antibody was added, and incubated at 4° C. overnight. The well was washed with 50 μL/well PBST (PBS containing 0.1% Tween-20) and soaked for 10 minutes per round for 4 times. 30 μL/well of goat anti-mouse 680RD (P/N 925-68070, Li-COR) and goat anti-rabbit 800CW (P/N 925-32211, Li-COR) secondary antibody mixture (1: 5000) was added and incubated at room temperature away from light for 1-1.5 hours. The well was washed with 50 μL/well PBST and soaked for 10 min per round for 4 times. The centrifuge plate was turned upside down, covered with toilet paper, then centrifuged at 1000 rpm/min for 1 minute, and the bottom of the plate was dried. A 384-well plate was scanned with an Azure WB imaging system (Sapphire) and the data was read.
The GSPT1 protein degradation activity of the compounds of the present disclosure in CAL51 cells was measured by the above assay, and the protein degradation rate of each sample well was calculated based on the raw data.
[formula] • Sample reading: refers to the signal value of the experimental group; • DSMO reference mean reading; refers to the mean signal value of the DSMO control group. No test compound was added to the […], and other operations were consistent with those of the experimental group.
Data analysis was performed by GraphPad Prism 9. The concentration-effect curves were obtained using a nonlinear four-parameter fitting, and DC50 of compounds was calculated:
[formula] • Wherein: • X: Log of the compound concentration. • Y: degradation rate (%); • Bottom is the minimum percent degradation: • Top is the maximum percent degradation: • HillSlope is the slope coefficient of the curve.

[2] = system: CAL51 cells; assay: Anti-proliferative activity experiment on CAL51 cells (CellTiter-Glo 3D); type: cell-based; conditions: Homo sapiens, CAL-51, 72 h, CAL51 cell spheroid, incubated 3 days
Protocol: The medium of target cells CAL51 (CBP60360, Kebai) was removed, and PBS was added for rinsing once, and then digested with trypsin (Trypsin-EDTA (0.25%)) for 5 minutes. After digestion, 10 mL of complete medium (DMEM containing 10% FBS) was added to neutralize trypsin, and the cells were pipetted and collected, then centrifuged at 300 g for 5 min, counted. The cell density was adjusted to 40,000 cells/mL. 90 μL cell suspension was added to a 96-well low adsorption plate. 200 μL of PBS was added to the edge wells. The plate was centrifuged at 300 g for 5 minutes to form cell spheroid, which were then incubated in a cell incubator overnights. […]
The cells were removed from the incubator and returned to room temperature for […]. 50 μL of CellTiter-Glo® 3D Cell Viability Assay reagent was added, and the plate was shaked and mixed well for 10 minutes, and then the plate was read with an Envision plate reader.
The anti-proliferative activity of the compound of the present disclosure on CAL51 cells was measured by the above assay, and the cell growth inhibition rate of each sample well was calculated based on the raw data.
[formula] • Sample reading: refers to the signal value of the experimental group; • DMSO reference mean reading: refers to the mean signal value of the DMSO control group. […]

[3] = target: T2, GST-labeled human Cereblon WT (Homo sapiens, UniProt Q96SW2); assay: Cereblon binding experiment (HTRF Human Cereblon Binding Kit); conditions: HTRF competition with XL665-labeled lenalidomide tracer; incubated at room temperature for 3 hours; read-out: IC50 (binding ability to Cereblon)
T2 construct: purchased
Source text: The detection kit (HTRF Human Cereblon Binding Kits) used in the experiment was a detection method for quantitative measurement of Cereblon WT ligand using HTRF® technology. The detection principle was based on HTRF technology. The specifically labeled GST antibody (Eurum Cryptate, donor) bound to the GST-labeled human Cereblon WT ligand and the XL665-labeled lenalidomide tracer (acceptor) at the same time. The donor was excited with a light source to initiate fluorescence resonance energy transfer (FRET) to the acceptor. The acceptor emitted fluorescence at a specific wavelength of 665 nm. After adding the compound, the compound competed with XL665-labeled lenalidomide to prevent FRET. The FRET signal ratio was inversely proportional to the compound concentration.
Compounds of the present disclosure were dissolved in DMSO, with a mother liquor storage concentration of 10 mM. […] The HTRF signal in each well was measured using an Envision plate reader. […]
The ratio of acceptor and donor emission signals was calculated for each well: […]
Data analysis was performed by GraphPad Prism 9. The concentration-effect curves were obtained using a nonlinear four-parameter fitting, and IC50 of compounds was calculated: […]
The binding ability of the compounds of the present disclosure to Cereblon was determined by the above assay, and the measured IC50 values were shown in Table 1.

T1 sequence (P15170 whole entry): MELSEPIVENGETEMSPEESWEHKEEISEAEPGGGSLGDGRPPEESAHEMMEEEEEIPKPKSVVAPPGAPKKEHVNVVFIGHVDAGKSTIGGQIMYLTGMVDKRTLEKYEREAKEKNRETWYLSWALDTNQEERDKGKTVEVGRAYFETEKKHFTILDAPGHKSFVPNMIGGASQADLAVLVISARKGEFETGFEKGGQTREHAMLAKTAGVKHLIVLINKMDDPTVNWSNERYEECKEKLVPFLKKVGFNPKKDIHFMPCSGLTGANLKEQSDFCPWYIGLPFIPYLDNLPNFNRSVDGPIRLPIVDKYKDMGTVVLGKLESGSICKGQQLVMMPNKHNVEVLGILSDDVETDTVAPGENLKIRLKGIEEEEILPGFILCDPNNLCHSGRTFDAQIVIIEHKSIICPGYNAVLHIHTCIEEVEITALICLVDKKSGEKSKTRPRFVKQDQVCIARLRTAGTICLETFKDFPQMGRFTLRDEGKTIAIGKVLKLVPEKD
T1 sequence (Q96SW2 whole entry): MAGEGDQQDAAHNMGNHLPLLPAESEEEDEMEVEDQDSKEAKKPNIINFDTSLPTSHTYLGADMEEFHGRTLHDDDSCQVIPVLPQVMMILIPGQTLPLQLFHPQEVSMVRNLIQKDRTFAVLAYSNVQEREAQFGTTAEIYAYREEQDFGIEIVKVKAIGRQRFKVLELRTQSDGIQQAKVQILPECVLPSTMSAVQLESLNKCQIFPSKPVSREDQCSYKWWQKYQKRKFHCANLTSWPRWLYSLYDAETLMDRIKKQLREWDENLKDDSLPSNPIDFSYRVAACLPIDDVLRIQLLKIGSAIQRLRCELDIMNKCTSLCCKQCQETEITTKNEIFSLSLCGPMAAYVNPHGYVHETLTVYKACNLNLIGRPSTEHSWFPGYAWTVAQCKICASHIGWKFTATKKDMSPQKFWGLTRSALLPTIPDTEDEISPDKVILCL
T1 sequence (Q16531 whole entry partner): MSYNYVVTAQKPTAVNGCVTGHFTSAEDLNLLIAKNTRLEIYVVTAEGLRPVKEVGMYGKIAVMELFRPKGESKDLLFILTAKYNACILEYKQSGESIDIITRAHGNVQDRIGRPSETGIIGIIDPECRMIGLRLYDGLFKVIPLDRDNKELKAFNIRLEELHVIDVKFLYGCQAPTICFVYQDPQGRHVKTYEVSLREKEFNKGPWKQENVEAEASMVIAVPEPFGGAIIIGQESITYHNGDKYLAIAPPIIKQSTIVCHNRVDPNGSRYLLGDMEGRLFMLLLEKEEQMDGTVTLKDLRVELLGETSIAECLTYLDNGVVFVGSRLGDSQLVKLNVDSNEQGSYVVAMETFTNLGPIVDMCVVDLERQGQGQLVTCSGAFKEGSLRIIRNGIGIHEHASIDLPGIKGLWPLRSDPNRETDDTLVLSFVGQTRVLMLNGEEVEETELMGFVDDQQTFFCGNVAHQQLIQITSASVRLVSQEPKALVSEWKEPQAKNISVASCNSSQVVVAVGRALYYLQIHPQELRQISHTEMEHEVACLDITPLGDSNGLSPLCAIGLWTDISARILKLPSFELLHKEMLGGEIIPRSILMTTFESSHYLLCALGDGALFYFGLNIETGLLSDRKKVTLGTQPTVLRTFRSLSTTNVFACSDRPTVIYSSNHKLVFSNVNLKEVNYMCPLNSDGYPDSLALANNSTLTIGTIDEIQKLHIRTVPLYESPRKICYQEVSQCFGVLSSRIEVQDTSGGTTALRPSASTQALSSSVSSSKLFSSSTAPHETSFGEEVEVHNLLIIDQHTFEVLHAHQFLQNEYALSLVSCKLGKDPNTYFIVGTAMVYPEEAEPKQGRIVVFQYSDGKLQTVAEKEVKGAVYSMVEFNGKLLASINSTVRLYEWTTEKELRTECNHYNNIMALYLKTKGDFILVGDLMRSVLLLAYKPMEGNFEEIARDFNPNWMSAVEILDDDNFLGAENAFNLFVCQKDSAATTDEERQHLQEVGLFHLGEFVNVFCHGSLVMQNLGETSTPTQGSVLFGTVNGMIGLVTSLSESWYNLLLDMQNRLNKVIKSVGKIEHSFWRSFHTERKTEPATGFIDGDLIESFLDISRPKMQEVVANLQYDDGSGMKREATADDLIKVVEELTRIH
T2 sequence (Q96SW2 whole entry): as the sequence (Q96SW2 whole entry) above

| SMILES | DC50 [1] | Dmax [1] | IC50 [2] | IC50 [3] |
| --- | --- | --- | --- | --- |
| O=C1CCC(N2Cc3cc4cc(COC(=O)Nc5cc(OC(F)(F)F)ccc5F)ccc4n3C2=O)C(=O)N1 (centres unmarked) [Compound 5, 2-(2,6-dioxopiperidin-3-yl)-3-oxo-2,3-dihydro-1H-imidazo [1,5-a] indol-7-yl) methyl (2-fluoro-5-trifluoromethoxy) phenyl) carbamate] | 20 nM | 96.7% | – | – |
| Cc1ccc(NC(=O)OCc2ccc3c(c2)cc2n3C(=O)N(C3CCC(=O)NC3=O)C2)cc1Cl (centres unmarked) [Compound 3, (2-(2,6-dioxopiperidin-3-yl)-3-oxo-2,3-dihydro-1H-imidazo [1,5-a]indol-7-yl) methyl-(3-chloro-4-methylphenyl) carbamate] | 25.4 nM | 98.3% | 39 nM | – |
| Cc1ccc(NC(=O)NCc2ccc3c(c2)cc2n3C(=O)N(C3CCC(=O)NC3=O)C2)cc1Cl (centres unmarked) [Compound 2, 1-(3-chloro-4-methylphenyl)-3-((2-(2,6-dioxopiperidin-3-yl)-3-oxo-2,3-dihydro-1H-imidazo [1,5-a]indol-7-yl)methyl) urea] | 86.3 nM | 95.4% | – | – |
| O=C1CCC(N2Cc3cc4ccccc4n3C2=O)C(=O)N1 (centres unmarked) [Compound 1, 3-(3-oxo-1H-imidazo [1,5-a]indol-2 (3H)-yl) piperidine-2,6-dione] | – | – | – | 1000 to 10000 nM |
| CNc1cc(C#CC(=O)NCc2ccc3c(c2)cc2n3C(=O)N(C3CCC(=O)NC3=O)C2)ccc1C (centres unmarked) [Compound 4, N-((2-(2,6-dioxopiperidin-3-yl)-3-oxo-2,3-dihydro-1H-imidazo [1,5-a]indol-7-yl)methyl)-3-(4-methyl-3-(methylamino)phenyl) propinamide] | 144 nM | 85.3% | – | – |
| Cc1ccc(NC(=O)OCc2cccc3c2cc2n3C(=O)N(C3CCC(=O)NC3=O)C2)cc1Cl (centres unmarked) [Compound 13, 2-(2,6-dioxopiperidin-3-yl)-3-oxo-2,3-dihydro-1H-imidazo [1,5-a] indol-8-yl) methyl (3-chloro-4-methylphenyl) carbamate] | 135 nM | 96.3% | – | – |
| O=C1CCC(N2Cc3nc4ccccc4n3C2=O)C(=O)N1 (centres unmarked) [Compound 14, 3-(1-oxo-1H-benzo [d]imidazo [1,5-a]imidazol-2 (3H)-yl) piperidine-2,6-dione] | – | – | – | 1000 to 10000 nM |
| CNc1ccc(NC(=O)OCc2ccc3c(c2)cc2n3C(=O)N(C3CCC(=O)NC3=O)C2)cc1Cl (centres unmarked) [Compound 8, (2-(2,6-dioxopiperidin-3-yl)-3-oxo-2,3-dihydro-1H-imidazo [1,5-a]indol-7-yl) methyl-(3-chloro-4-(methylamino)phenyl) carbamate] | 13 nM | 94.6% | – | – |
| CNCCOCCc1cc(NC(=O)OCc2ccc3c(c2)cc2n3C(=O)N(C3CCC(=O)NC3=O)C2)ccc1Cl (centres unmarked) [Compound 9, (2-(2,6-dioxopiperidin-3-yl)-3-oxo-2,3-dihydro-1H-imidazo [1,5-a]indol-7-yl) methyl-(4-chloro-3-(2-(2-(methylamino)ethoxy)ethyl)phenyl) carbamate] | 1460 nM | 69.6% | – | – |
